In US20070185176A1, “Heparanase inhibitors and uses thereof” (Insight Bioharmaceuticals Ltd., priority 2004, published 2007):
pIC50: −log10 of the molar value.

What follows are molecules tested against T1, human recombinant heparanase (h-hpa) (Homo sapiens, UniProt Q9Y251) (assay: In vitro dimethylmethylene blue (DMB) assay for heparanase activity).
T1 sequence (Q9Y251 158-543 limits assumed): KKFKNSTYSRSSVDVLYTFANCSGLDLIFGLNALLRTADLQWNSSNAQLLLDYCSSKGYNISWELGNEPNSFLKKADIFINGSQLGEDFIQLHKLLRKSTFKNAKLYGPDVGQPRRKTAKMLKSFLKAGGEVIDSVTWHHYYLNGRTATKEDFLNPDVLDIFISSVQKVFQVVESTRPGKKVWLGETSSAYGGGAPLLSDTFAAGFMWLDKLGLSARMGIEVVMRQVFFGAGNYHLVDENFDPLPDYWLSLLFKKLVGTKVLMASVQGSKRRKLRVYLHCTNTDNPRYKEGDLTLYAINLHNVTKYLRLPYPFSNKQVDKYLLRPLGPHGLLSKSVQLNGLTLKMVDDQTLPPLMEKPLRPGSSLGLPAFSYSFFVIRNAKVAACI
T1 sequence (Q9Y251 36-109 limits assumed): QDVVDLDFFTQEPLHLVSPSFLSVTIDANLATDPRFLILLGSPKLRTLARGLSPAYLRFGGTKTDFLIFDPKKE
Protocol: (a) In Vitro Dimethylmethylene Blue (DMB) Assay for Heparanase Activity
Heparin Sepharose CL-6B beads were added up to the top of the wells of a multiscreen column loader (Millipore). A 96-well multiscreen plate containing 0.65 μm hydrophilic, low protein binding, Durapore membrane (Millipore) was placed, upside down, on top of the multiscreen column loader. The column loader and the multiscreen plate were held together, turned over, and the beads were uniformly transferred from the column loader to the multiscreen plate (Millipore, MADVM 650). Double-distilled water (DDW) was then added to the beads, which were allowed to swell for one minute, and then washed (three times) with DDW under vacuum. Heparin concentration was estimated to be 10 μM/well.
To each well, phosphate-buffered saline (PBS) containing 1% bovine serum albumin (BSA; 70 μl/well) and DMB (32 mg of DMB were dissolved in 5 ml ethanol, diluted to 1 liter with formate buffer containing 4 g sodium formate and 4 ml formic acid; 120 μl/well) were added. Color was developed after 5 minutes, and the absorbance of the samples was determined using a microplate reader (Spectra Max, Molecular Devices) at 530 nm with 570 nm as reference. The absorbance correlated to heparanase activity. As a control, heparanase was added to the heparin Sepharose swollen beads in the multiscreen plate and the heparanase reaction products were filtered immediately thereafter and the absorbance of these control samples was subtracted from all other samples.
The cell extracts were centrifuged and resuspended in 20 mM phosphate citrate buffer, pH 5.4 containing 50 mM NaCl. The cells were lysed by three cycles of freezing and thawing. The cell lysates were centrifuged (10000×g for 5 min), supernatants were collected and then assayed for heparanase activity using the DMB assay.
The partially purified human recombinant heparanase or the crude cell extracts expressing either human or mouse recombinant heparanase were added for a 3-hour incubation and the reaction continued as described above. Absorbance of the developing color was measured as described above.

**Q.** How did the pIC50 turn out when CCCCCCCCCCCCCCCC1=CN(c2ccc(S(=O)(=O)O)cc2)C(=O)C1 [Compound 75] was run?
**A.** 5.80

**Q.** CCN1C(=O)/C(=C2\SC(=S)N(CCCCCCCCCCC(=O)O)C2=O)c2ccccc21 [Compound 82] was tested. Which pIC50 did it give?
**A.** 4.77

**Q.** With CCCCCCCCCCCCCCCCCCN(C)c1ccc(C(=O)O)cc1NC(=O)c1cc(/N=N/c2cc(C(=O)OC)ccc2O)c2ccccc2c1O [Compound 62] as the molecule, how does the pIC50 read?
**A.** 4.93

**Q.** With CCCCCCCCCCCCCCCCCCCCC1=NN(c2ccc(S(=O)(=O)O)cc2N)C(=O)C1 [Compound 14] as the molecule, how does the pIC50 read?
**A.** 6.06

**Q.** How did the pIC50 turn out when CCCCCCCCCCCCCCCCCC1=NN(c2ccc(Oc3ccccc3)c(S(=O)(=O)O)c2)C(=O)C1/N=N/c1ccc(S(=O)(=O)O)cc1 (stereo not drawn) [Compound 25] was run?
**A.** 6.57

**Q.** How did the pIC50 turn out when CCCCCCCCCCCCCCCCCC(=O)Nc1ccc(NC(=O)c2cc(/N=N/c3cc(C(=O)O)c(O)cc3O)c3ccccc3c2O)cc1S(=O)(=O)O [Compound 40] was run?
**A.** 6.64

**Q.** How did the pIC50 turn out when CCCCCCCCCCCCCCCCCCN(C)c1ccc(S(=O)(=O)O)cc1NC(=O)c1cc(O)c2ccccc2c1 [Compound 77] was run?
**A.** 6.47

**Q.** With CCCCCCCCCCCC1SC1CCCCC(=O)Nc1cc(C(=O)O)ccc1Oc1cc(C(=O)O)cc(C(=O)O)c1 (stereo not drawn) [Compound 92] as the molecule, how does the pIC50 read?
**A.** 6.30

**Q.** How did the pIC50 turn out when CCCCCCCCCCCCC/C=C/CC(O)(C(=O)O)C(F)(F)F (stereo not drawn) [Compound 97] was run?
**A.** 5.22

**Q.** With CCCCCCCCCCCCCCCC(=O)NC(CN1CCOCC1)C(O)c1ccccc1 (stereo not drawn) [Compound 74] as the molecule, how does the pIC50 read?
**A.** 4.72

**Q.** CCCCCCCCCCCC(=O)NC1=NN(c2ccc(Oc3ccccc3)c(S(=O)(=O)O)c2)C(=O)C1 [Compound 71] was tested. Which pIC50 did it give?
**A.** 5.58

**Q.** CCCCCCCCCCCCCCCCCC(=O)Nc1ccc(C(=O)CC(=O)Nc2cc(C(=O)O)ccc2Oc2cc(C(=O)O)cc(C(=O)O)c2)cc1 [Compound 60] was tested. Which pIC50 did it give?
**A.** 6.36

**Q.** CCCCCCCCCCCCCCCCCCN1/C(=C/C=C/c2sc3ccccc3[n+]2CCCCCCCCCCCCCCCCCC)Sc2ccccc21 [Compound 67] was tested. Which pIC50 did it give?
**A.** 5.82

**Q.** With CCCCCCCCCCCCCCCCCC1=NN(c2ccc(Oc3ccccc3)c(S(=O)(=O)O)c2)C(=O)C1/N=N/c1ccc(O)c(C(=O)O)c1 (stereo not drawn) [Compound 21] as the molecule, how does the pIC50 read?
**A.** 6.51

**Q.** CCCCCCCCCCCCCCCCCC1=NN(c2nc3ccc(S(=O)(=O)O)cc3[nH]2)C(=O)/C1=N\c1ccc(N(CC)CC)cc1 [Compound 38] was tested. Which pIC50 did it give?
**A.** 5.84

**Q.** CCCCCCCCCCCCCCCCS(=O)(=O)c1ccc(N2N=C(NC(=O)c3ccccc3S(=O)(=O)O)C(/N=N\c3ccc(O)cc3Cl)C2=O)cc1 (stereo not drawn) [Compound 54] was tested. Which pIC50 did it give?
**A.** 6.70

**Q.** CCCCCCCCCCCCCCCCCCn1c(-c2ccccc2)nc2cc(S(=O)(=O)O)ccc21 [Compound 102] was tested. Which pIC50 did it give?
**A.** 6.20

**Q.** With CCCCCCCCCCCCCCCCn1c(=N)n(CC(O)c2ccc(OC)c(OC)c2)c2ccccc21 (stereo not drawn) [Compound 65] as the molecule, how does the pIC50 read?
**A.** 5.32

**Q.** How did the pIC50 turn out when CCCCCCCCCCCCCCCCCCN(C)c1ccc(S(=O)(=O)O)cc1NC(=O)c1cc(S(=O)(=O)O)c2ccccc2c1O [Compound 41] was run?
**A.** 6.31

**Q.** How did the pIC50 turn out when CCCCCCCCCCCC1OC1CCCCC(=O)Nc1cc(C(=O)O)ccc1Oc1cc(C(N)=O)cc(C(N)=O)c1 (stereo not drawn) [Compound 96] was run?
**A.** 5.80

**Q.** CCCCCCCCCCCCCCCCCC1=NN(c2ccc(Oc3ccccc3)c(S(=O)(=O)O)c2)C(=O)C1Br (stereo not drawn) [Compound 6] was tested. Which pIC50 did it give?
**A.** 6.60

**Q.** How did the pIC50 turn out when CCCCCCCCCCCCCCCCCCOc1ccc(C(=O)CC(=O)Nc2ccc(Oc3cccc(C(=O)O)c3)c(C(=O)O)c2)cc1 [Compound 23] was run?
**A.** 6.40

**Q.** CCCCCCCCCCCCCCCCCC1=NN(c2ccc(Oc3ccccc3)c(S(=O)(=O)O)c2)C(=O)C1/N=N/c1cccc(C(=O)O)c1 (stereo not drawn) [Compound 11] was tested. Which pIC50 did it give?
**A.** 6.74

**Q.** CCCCCCCCCCCCCCCCCCN(C)c1ccc(S(=O)(=O)O)cc1NC(=O)c1cc(/N=N/c2ccc(NS(=O)(=O)c3ccc(C)cc3)cc2)c2ccccc2c1O [Compound 45] was tested. Which pIC50 did it give?
**A.** 6.30

**Q.** How did the pIC50 turn out when CCCCCCCCCCCCCCCCn1c(/N=C/c2cc(Cl)cc(Br)c2O)nc2ccccc21 [Compound 58] was run?
**A.** 5.52

**Q.** With CCCCCCCCCCCCCCCCCCNC(=O)C1CC(=O)N(c2ccc(Oc3ccc(Br)cc3)c(S(=O)(=O)O)c2)C1 (stereo not drawn) [Compound 105] as the molecule, how does the pIC50 read?
**A.** 6.07

**Q.** CCCCCCCCCCCCCCCCCC1=Nn2c(nc3cc(C(=O)O)ccc32)C1S(=O)(=O)O (stereo not drawn) [Compound 36] was tested. Which pIC50 did it give?
**A.** 5.85

**Q.** With CCCCCCCCCCCCCCCCCCNc1ccc(C(=O)O)cc1NC(=O)c1cc(/N=N/c2ccc(NS(=O)(=O)c3ccc(C)cc3)cc2C)c2ccccc2c1O [Compound 63] as the molecule, how does the pIC50 read?
**A.** 4.77

**Q.** With CCCCCCCCCCCCCCCCCCNC(=O)Nc1ccc(S(=O)(=O)O)cc1 [Compound 70] as the molecule, how does the pIC50 read?
**A.** 5.15

**Q.** CCCCCCCCCCCCCCCCCCN(C)c1ccc(C(=O)O)cc1NC(=O)c1cc(/N=N/c2cc(C(=O)O)ccc2O)c2ccccc2c1O [Compound 50] was tested. Which pIC50 did it give?
**A.** 5.35

**Q.** With CCCCCCCCCCCC1OC1CCCCC(=O)NC1=NN(c2ccc(Oc3ccccc3)c(S(=O)(=O)O)c2)C(=O)C1 (stereo not drawn) [Compound 100] as the molecule, how does the pIC50 read?
**A.** 6.57

**Q.** CCCCCCCCCCCCCCCCCCNC(=O)C1CC(=O)N(c2ccc(Oc3ccc(C(=O)O)cc3)c(S(=O)(=O)O)c2)C1 (stereo not drawn) [Compound 107, 2-(4-carboxy-phenoxy)-5-(4-octadecyl-carbamoyl-2-oxo-pyrrolidin-1-yl)-benzene sulfonic acid] was tested. Which pIC50 did it give?
**A.** 6.48

**Q.** CCCCCCCCCCCCCCCCCC1=NN(c2ccc(Oc3ccccc3)c(S(=O)(=O)O)c2)C(=O)C1/N=N/c1ccc(NC(C)=O)cc1 (stereo not drawn) [Compound 26] was tested. Which pIC50 did it give?
**A.** 6.89

**Q.** CCCCCCCCCCC/C=C\CCCCC(=O)Nc1cc(C(=O)O)ccc1Oc1cc(C(=O)O)cc(C(=O)O)c1 [Compound 86] was tested. Which pIC50 did it give?
**A.** 5.70

**Q.** With CCCCCCCCCCCCCCCCCCNCC(O)Cn1c2ccc(Br)cc2c2cc(Br)ccc21 (stereo not drawn) [Compound 91] as the molecule, how does the pIC50 read?
**A.** 4.82

**Q.** With CCCCCCCCCCCCCCCCCC1=NN(c2ccc(Oc3ccccc3)c(S(=O)(=O)O)c2)C(=O)C1/N=N/c1ccc(OC)cc1 (stereo not drawn) [Compound 7] as the molecule, how does the pIC50 read?
**A.** 6.62

**Q.** How did the pIC50 turn out when CCCCCCCCCCCCCCCCCCC(=O)CC(=O)Nc1ccc(Oc2ccc(C(=O)O)cc2)c(C(=O)O)c1 [Compound 51] was run?
**A.** 5.52

**Q.** With CCCCCCCCCCNCC(O)Cn1c2ccc(Cl)cc2c2cc(Cl)ccc21 (stereo not drawn) [Compound 68] as the molecule, how does the pIC50 read?
**A.** 5.17

**Q.** CCCCCCCCCCCCCCCCCC1=NN(c2nc3cc(C(=O)O)cc(C(=O)O)c3s2)C(=O)C1 [Compound 39] was tested. Which pIC50 did it give?
**A.** 5.55

**Q.** CCCCCCCCCCCC(Cl)C(O)CCCCC(=O)Nc1cc(C(=O)O)ccc1Oc1cc(C(=O)O)cc(C(=O)O)c1 (stereo not drawn) [Compound 93] was tested. Which pIC50 did it give?
**A.** 5.04

**Q.** With CCCCCCCCCCCCCCCCCCN(C)c1ccc(S(=O)(=O)O)cc1NC(=O)c1cc(/N=N/c2cc(NS(=O)(=O)c3ccc(C)cc3)ccc2Cl)c2ccccc2c1O [Compound 52] as the molecule, how does the pIC50 read?
**A.** 6.13

**Q.** How did the pIC50 turn out when CCCCCCCCCCC/C=C\CCCCC(=O)NC1=NN(c2ccc(Oc3ccccc3)c(S(=O)(=O)O)c2)C(=O)C1 [Compound 85] was run?
**A.** 6.40

**Q.** How did the pIC50 turn out when CCCCCCCCCCCCCCCCCCN1/C(=C/C=C/c2oc3ccccc3[n+]2CCCCCCCCCCCCCCCCCC)Oc2ccccc21 [Compound 66] was run?
**A.** 6.00

**Q.** With CCCCCCCCCCCCCCCCCC/C=C/c1cc(C(=O)O)c2oc3c(C(=O)O)cccc3c2c1 [Compound 90] as the molecule, how does the pIC50 read?
**A.** 5.07

**Q.** How did the pIC50 turn out when C=CCCCCCCCCCCCCCCC(CC(=O)NC1=NN(c2c(Cl)cc(Cl)cc2Cl)C(=O)C1)C(=O)O (stereo not drawn) [Compound 56] was run?
**A.** 5.17

**Q.** With O=C(O)CCCCCCCCCCN1C(=O)/C(=C/c2cccc(Br)c2)SC1=S [Compound 81] as the molecule, how does the pIC50 read?
**A.** 4.74

**Q.** How did the pIC50 turn out when C=CCCCCCCCCC(=O)CCCCCC(=O)Nc1cc(C(=O)O)ccc1Oc1cc(C(=O)O)cc(C(=O)O)c1 [Compound 94] was run?
**A.** 4.74

**Q.** With CCCCCCCCCCCCCCCCn1c(/N=C/c2c(O)ccc3cc([N+](=O)[O-])ccc23)nc2ccccc21 [Compound 57] as the molecule, how does the pIC50 read?
**A.** 5.11
